In PMC9959244, “Revisiting the Solubility–Permeability Relationship with Hydrophobic Drug Umifenovir in Pluronic Solutions: Impact of pH and Co-Solvent” (Pharmaceutics, 2023):

Test: In vitro permeability, Franz diffusion cell
Format: in vitro ADME
Description: The permeability coefficients of UMF were measured in a Franz diffusion cell of a vertical type (PermeGear, Inc., Hellertown, PA, USA) at 310.15 ± 0.1 K. The experimental setup is fully described and illustrated in our previous study. All the experiments were carried out with the help of a regenerated cellulose membrane with a molecular weight cut-off (MWCO) of 12–14 kDa (Standard Grade RC Dialysis Membrane, Flat Width 45 mm) pretreated with water for 30 min and dried under air. A cellulose membrane MWCO 6–8 kDa was additionally used for several experiments. The membrane effective surface area was 0.785 cm^2. It was placed between the donor (7 mL of the stock UMF solution) and acceptor (pure solvent without UMF—blank solution) chambers. In the case of the pH 2.0 donor solution, the blank solution at pH 7.4 was applied in the acceptor chamber in order to simulate the compound transfer to the blood plasma. Samples of 0.5 mL were withdrawn every 30 min from the acceptor chamber and replaced with an equal amount of pure buffer pH 7.4. The solutions were analyzed using a plate-type spectrophotometer (Spectramax 190; Molecular devices, Molecular Devices Corporation, California, USA) and a 96-well UV black plate (Costar). The plot of the cumulative amount of the compound (Q) permeated through the membrane of effective surface area (A) versus time (t) was constructed and the apparent permeability coefficient (Papp) was calculated by the equation:Papp = J/C0(1) where J is the flux through the membrane derived as a slope of the permeation plot (J = dQ/(A·dt)), and C0 is the UMF concentration in the donor solution. Papp values were taken as an average of at least 3 or more experiments.

Permeability coefficient in pure buffer pH 7.4 greater than in pH 2.0: 2.1 fold
Permeability increase by EtOH in buffer pH 7.4 (10% EtOH): 1.4 fold
Permeability increase by EtOH in buffer pH 7.4 (20% EtOH): 1.2 fold
Permeability reduction by 4.0% F-127 vs pure buffer (buffer pH 7.4): 2.35 fold
Papp in 20% EtOH + 1.5% F-127 lower than in buffer pH 7.4 + 1.5% F-127 (pH 7.4): 5.1 fold
Papp in 20% EtOH + 1.5% F-127 lower than in buffer pH 7.4 +20% EtOH (pH 7.4): 10.8 fold
Papp in 20% EtOH + 1.5% F-127 lower than in pure buffer pH 7.4 (pH 7.4): 9.1 fold
SMILES: CCOC(=O)c1c(CSc2ccccc2)n(C)c2cc(Br)c(O)c(CN(C)C)c12 [UMF, 6-bromo-4-dimethylaminomethyl-5-hydroxy-1-methyl-2-phenylthiomethyl indole-3-carboxylic acid ethyl ester]
